From patent publication US9140705B2, “Tumor suppressor killin” (Vanderbilt University, priority 2005, dated 2015) come the findings set out here.

A value given as a limit tells only on which side of the number the result lay.

For assay [1], the target named is single-stranded DNA. The assay is described as follows: In vitro DNA binding assay (gel shift, 32P-end labeled probes), single-stranded DNA template. The note with it: 32P-end labeled oligo nucleotide probe, read-out: apparent Kd. As to the method: (§1) In vitro transcribed and translated Killin cloned into pcDNA3.1 (Invitrogen) (K), or vector alone (V) were labeled with ^35S using Translabel (ICN) and a TnT kit (Promega). The labeled Killin and vector control were incubated with either single-stranded (ss) or double-stranded (ds) DNA cellulose (Sigma). After washing with PBS, bound proteins were resolved on a 15% SDS-PAGE gel, dried onto as 3M paper before autoradiography. For peptide binding, 42 as of Killin/N8-50 peptide (MW: 5007 dalton) was synthesized and verified with mass spec by Sigma-Genosys at a purity of at least 70%. The peptide was dissolved in PBS as 1 mg/mL stock solution before use, For in vitro DNA binding assay, 3 primers (32-35 bases in length) with arbitrary sequences were designed:
(§2) After annealing, probes for artificial replication fork (LL and RL) or double-stranded DNA template (LL and RLM) were end-labeled with α-^32P-dATP (Perkin-Elmer) using Klenow (New England Biolab). Single-stranded oligonucleotide (LL) was end-labeled with […] (Perkin-Elmer) using T4 polynucleotide kinase (New England Biolab). […] For binding kinetics, bands from DNA-peptide complex were excised and the radioactivity was determined by scintillation counting. […]

Assay [2] has as its target artificial replication fork. The assay is described as follows: In vitro DNA binding assay (gel shift, 32P-end labeled probes), artificial replication fork. The note with it: 32P-end labeled oligo nucleotide probes, read-out: apparent Kd. The protocol:
as §1, §2

The test system of assay [3] is SV40 origin (ori) of replication-dependent in vitro DNA replication. Kind of assay: In vitro SV40 DNA replication assay. The assay is classed as biochemical, simian virus 40 (SV40). The following applies: peptide 1 to 16 μM; HEK293T nuclear extract as source of SV40 large T antigen. The protocol: The SV40 origin (ori) of replication-dependent in vitro DNA replication was carried out essentially as described previously (L1 and Kelly, 1984) with minor modifications. Briefly, the source of SV40 large T antigen was from HEK293T cells (GenHunter). The SV40 ori-containing plasmid vector pAPtag-2 (GenHunter) and a negative control vector pUC18 that lacks SV40 ori were used as templates for the in vitro DNA replication assays. 10 ng of nuclear protein extracts and 250 ng of plasmid DNA template were used for each assay. Nascent DNA synthesis in the absence and presence of Killin/N8-50 peptide after ^32P-α-dATP labeling was analyzed on a 6% TBE PAGE gel, dried onto a 3 M paper (Whatman) and visualize by autoradiography.
To determine if Killin/N8-50 peptide binding to DNA has any consequences in DNA replication, the inventors employed the commonly used in vitro eukayotic DNA replication assays originally described by L1 and Kelly (1984). This assay uses soluble cell-free system derived from mammalian cell nuclear extract that is capable of replicating exogenous plasmid DNA molecules containing the simian virus 40 (SV40) origin of replication. Replication in the system is completely dependent upon the addition of the SV40 large T antigen. […]

Assay [4] concerns the target double-stranded DNA. The assay is described as follows: In vitro DNA binding assay (gel shift, 32P-end labeled probes), double-stranded DNA template. The following applies: 32P-end labeled oligo nucleotide probes, read-out: apparent Kd. The protocol: as §1, §2
Assay [5] relates to E. coli. Kind of assay: Bacterial expression / toxicity (colony formation) of Killin and truncated Killin. Format: cell-based. The following applies: for toxicity to E. coli (colony formation in the absence of transcriptional repression): pQE32 plasmids expressing truncated Killin. The protocol:
Mutagenesis experiments were performed using EMS (ethylmethanesulfonate) (Sigma) as described previously with minor modification. Exponentially growing XL-1 blue with pQE32-Killin was harvested by centrifugation, washed, and resuspended in minimal A buffer (10.5 g of K2HPO4, 4.5 g of KH2PO4, 1 g of [NH4]2SO4, and 0.5 g of sodium citrate:2H2O in 1 liter). EMS was added to the cells at a concentration of 140 μM for 1 hour during continuous shaking at 37° C. After washing with minimal A buffer, cells was diluted 1:10 in LB medium and grown for 6 hrs at 37° C. before mutagenized plasmids were purified and transformed into either GH1 (without repression, GenHunter) or XL-1 blue (with repression, Stratagene) competent cells. Ampicilin resistant colonies were scored after an overnight incubation.
For deletion analysis, PCR was performed to amplify different regions of Killin as specified. PCR primer sequences used for the deletions are listed below:
The obtained PCR products were first cloned into PCR-TRAP cloning vector and then subcloned as BglII fragments into the BamHI site of the pQE32 6XHIS-tag expression vector (Qiagen). The expression vectors were transformed into XL-1 blue under transcription repression for the transgene (−IPTG). […] As a negative control, all vectors were simultaneously transformed into XL-1 blue cells, which gave near confluent transformants under transcription repression for all constructs. Similar deletion constructs were also made as GFP fusion protein as described above and transiently transfected into the H1299 cells to visualized their ability to cause cell apoptosis based on nuclear chromosome condensation.

Assay [6] has as its system double-stranded (ds) DNA cellulose. The assay is described as follows: DNA cellulose binding of in vitro transcribed and translated 35S-labeled Killin, double-stranded. The following applies: washed with PBS. As to the method: as §1, with “designed: […]” for “designed:”
Assay [7] concerns single-stranded (ss) DNA cellulose. Kind of assay: DNA cellulose binding of in vitro transcribed and translated 35S-labeled Killin, single-stranded. The note with it: washed with PBS. The protocol: as §1, with “designed: […]” for “designed:”

With “Killin/N8-50: chemically synthesized peptide of 42 amino acid residues corresponding to N8-50 of Killin (SARPGRTVHVWGYRVEWKVRNGRKLQPSEWAGRGDLGGFKRRW; UniProt B2CW77 8-50, looked up, fragment)”, the Kd in assay [1] was determined as 0.5 µM; in assay [2], 1 µM; in assay [4], 1 µM. Moreover, the “inhibition of DNA replication in vitro” value in assay [3] is listed as “greatly inhibit DNA replication”.

On to “C-terminal 124-178 amino acid residues: Killin coding region truncated at unique Eco41III site, C-terminal part (CRGWRLGNWLHKHPHPNTCPRLPACWLPPILTERGERVPKLVPLLACYPKSKPKD; UniProt B2CW77 124-178, looked up, fragment)”, for which, in assay [5], the “toxicity to E. coli (colony formation in the absence of transcriptional repression)” value is “able to transform E. coli into colonies”.

B1: Killin: novel 20 kDa basic nuclear DNA binding protein of 178 amino acids (SEQ ID NO:1), p53 target gene product (protein, listed as Homo sapiens)
chain: MDRPGPGSARPGRTVHVWGYRVEWKVRNGRKLQPSEWAGRGDLGGFKRRWKDTRATVGTTFRRRSRVSLVGELSKFPLPSDSSGGKSSSSFARGALAWCRQRNPNPSCAAAETGARTSLPKERCRGWRLGNWLHKHPHPNTCPRLPACWLPPILTERGERVPKLVPLLACYPKSKPKD
Consider B1, for which the “binding to DNA template” value in assay [6] and in assay [7] was “able to bind” in each case.

B2: 6×HIS-tagged Killin: bacterially expressed full-length N-terminal His-tagged Killin (pQE32 vector) (protein, UniProt B2CW77 1-178, looked up)
chain: MDRPGPGSARPGRTVHVWGYRVEWKVRNGRKLQPSEWAGRGDLGGFKRRWKDTRATVGTTFRRRSRVSLVGELSKFPLPSDSSGGKSSSSFARGALAWCRQRNPNPSCAAAETGARTSLPKERCRGWRLGNWLHKHPHPNTCPRLPACWLPPILTERGERVPKLVPLLACYPKSKPKD
modifications: full-length N-terminal His6 tag
As for B2, the “time to growth arrest of the bacteria hosts after IPTG induction” value in assay [5] (bacterial expression, induction by IPTG) is on record as no more than 30 min.

B3: N-terminal 123 amino acids: Killin coding region truncated at unique Eco41III site, N-terminal part (protein, UniProt B2CW77 1-123, looked up, fragment)
chain: MDRPGPGSARPGRTVHVWGYRVEWKVRNGRKLQPSEWAGRGDLGGFKRRWKDTRATVGTTFRRRSRVSLVGELSKFPLPSDSSGGKSSSSFARGALAWCRQRNPNPSCAAAETGARTSLPKER
On to B3, for which the “toxicity to E. coli (colony formation in the absence of transcriptional repression)” value in assay [5] is “sufficient to retain toxicity to E. coli”.
